Source: ChEMBL document CHEMBL1148518, “Synthesis and SAR of alpha-sulfonylcarboxylic acids as potent matrix metalloproteinase inhibitors” (Bioorg Med Chem Lett, 2006)

Legend:
[1] = molecular target: 72 kDa type IV collagenase (Homo sapiens, UniProt P08253)
[2] = molecular target: Matrix metalloproteinase-9 (Homo sapiens, UniProt P14780)
[3] = molecular target: T1, Interstitial collagenase (Homo sapiens, UniProt P03956); assay: Inhibition of MMP1
T1 sequence (P03956 whole entry): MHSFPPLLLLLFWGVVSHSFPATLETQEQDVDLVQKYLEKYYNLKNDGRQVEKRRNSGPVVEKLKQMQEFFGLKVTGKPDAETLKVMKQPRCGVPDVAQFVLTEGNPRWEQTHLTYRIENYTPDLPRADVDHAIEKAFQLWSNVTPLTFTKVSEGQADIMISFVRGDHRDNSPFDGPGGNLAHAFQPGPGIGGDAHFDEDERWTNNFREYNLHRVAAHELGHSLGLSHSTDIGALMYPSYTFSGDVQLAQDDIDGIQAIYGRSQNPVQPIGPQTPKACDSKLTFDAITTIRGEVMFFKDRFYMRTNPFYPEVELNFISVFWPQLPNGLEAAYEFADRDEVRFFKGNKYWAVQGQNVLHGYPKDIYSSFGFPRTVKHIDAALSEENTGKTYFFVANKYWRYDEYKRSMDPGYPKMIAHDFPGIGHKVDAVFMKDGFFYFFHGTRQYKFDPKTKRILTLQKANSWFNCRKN

[4] = molecular target: Collagenase 3 (Homo sapiens, UniProt P45452)
[5] = molecular target: Stromelysin-1 (Homo sapiens, UniProt P08254); assay: Inhibition of MMP3
[6] = Initial concentration in rat at 0.5 mg/kg, iv; format: ADME, organism-based; design: dose 0.5 mg/kg, route intravenous; settings: in vivo
[7] = system: Rattus norvegicus; assay: (§1) Apparent elimination half life in rat at 0.5 mg/kg, iv; format: ADME, organism-based; design: dose 0.5 mg/kg, route intravenous; settings: in vivo
[8] = Metabolic stability in human liver microsomes; format: ADME, Microsome
[9] = system: Rattus norvegicus; assay: (§2) Volume of distribution in rat at 0.5 mg/kg, iv; format: ADME, organism-based; design: dose 0.5 mg/kg, route intravenous; settings: in vivo
[10] = AUC in rat at 0.5 mg/kg, iv; format: ADME, organism-based; design: dose 0.5 mg/kg, route intravenous; settings: plasma
[11] = Clearance in rat at 0.5 mg/kg, iv; format: ADME, organism-based; design: dose 0.5 mg/kg, route intravenous; settings: in vivo
[12] = as §1; format: ADME, organism-based; design: dose 0.5 mg/kg, route intravenous; settings: in vivo
[13] = as §2; format: ADME, organism-based; design: dose 0.5 mg/kg, route intravenous; settings: in vivo, read-out: Vss

72 kDa type IV collagenase, sequence (P08253 whole entry): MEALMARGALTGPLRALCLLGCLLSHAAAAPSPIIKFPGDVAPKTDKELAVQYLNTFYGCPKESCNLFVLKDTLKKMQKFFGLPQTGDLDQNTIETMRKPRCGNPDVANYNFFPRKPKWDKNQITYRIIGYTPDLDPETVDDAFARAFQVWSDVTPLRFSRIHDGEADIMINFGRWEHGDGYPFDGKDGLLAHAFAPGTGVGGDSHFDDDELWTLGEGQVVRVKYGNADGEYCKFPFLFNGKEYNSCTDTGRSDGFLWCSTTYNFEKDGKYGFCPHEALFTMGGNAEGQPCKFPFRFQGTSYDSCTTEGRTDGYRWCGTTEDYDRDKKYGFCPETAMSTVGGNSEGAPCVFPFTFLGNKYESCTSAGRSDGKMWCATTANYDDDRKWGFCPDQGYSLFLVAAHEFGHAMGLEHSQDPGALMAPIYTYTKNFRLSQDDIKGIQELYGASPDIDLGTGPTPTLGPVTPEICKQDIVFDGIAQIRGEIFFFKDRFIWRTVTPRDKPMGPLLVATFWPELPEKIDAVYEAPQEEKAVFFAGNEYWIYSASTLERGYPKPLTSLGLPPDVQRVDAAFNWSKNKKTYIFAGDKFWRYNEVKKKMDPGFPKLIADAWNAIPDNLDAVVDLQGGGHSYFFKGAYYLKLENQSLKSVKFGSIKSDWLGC
Matrix metalloproteinase-9, sequence (P14780 whole entry): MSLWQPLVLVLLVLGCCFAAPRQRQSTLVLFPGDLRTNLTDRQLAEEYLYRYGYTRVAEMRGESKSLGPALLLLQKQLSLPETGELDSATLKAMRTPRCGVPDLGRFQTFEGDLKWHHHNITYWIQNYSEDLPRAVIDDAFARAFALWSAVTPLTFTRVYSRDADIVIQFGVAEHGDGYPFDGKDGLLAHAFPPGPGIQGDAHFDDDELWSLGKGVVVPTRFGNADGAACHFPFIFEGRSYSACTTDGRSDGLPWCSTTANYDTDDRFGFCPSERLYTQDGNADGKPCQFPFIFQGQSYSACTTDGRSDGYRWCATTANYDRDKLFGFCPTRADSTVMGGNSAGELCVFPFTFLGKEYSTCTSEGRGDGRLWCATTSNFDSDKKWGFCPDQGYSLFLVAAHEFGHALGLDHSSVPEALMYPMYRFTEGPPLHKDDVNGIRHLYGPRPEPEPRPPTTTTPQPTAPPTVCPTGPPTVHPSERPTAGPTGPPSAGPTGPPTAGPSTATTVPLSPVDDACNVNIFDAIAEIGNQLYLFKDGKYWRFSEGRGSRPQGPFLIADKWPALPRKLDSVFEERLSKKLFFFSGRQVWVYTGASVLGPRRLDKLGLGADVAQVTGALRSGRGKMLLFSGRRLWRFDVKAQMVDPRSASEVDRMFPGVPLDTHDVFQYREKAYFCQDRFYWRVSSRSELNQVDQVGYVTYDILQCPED
Stromelysin-1, sequence (P08254 whole entry): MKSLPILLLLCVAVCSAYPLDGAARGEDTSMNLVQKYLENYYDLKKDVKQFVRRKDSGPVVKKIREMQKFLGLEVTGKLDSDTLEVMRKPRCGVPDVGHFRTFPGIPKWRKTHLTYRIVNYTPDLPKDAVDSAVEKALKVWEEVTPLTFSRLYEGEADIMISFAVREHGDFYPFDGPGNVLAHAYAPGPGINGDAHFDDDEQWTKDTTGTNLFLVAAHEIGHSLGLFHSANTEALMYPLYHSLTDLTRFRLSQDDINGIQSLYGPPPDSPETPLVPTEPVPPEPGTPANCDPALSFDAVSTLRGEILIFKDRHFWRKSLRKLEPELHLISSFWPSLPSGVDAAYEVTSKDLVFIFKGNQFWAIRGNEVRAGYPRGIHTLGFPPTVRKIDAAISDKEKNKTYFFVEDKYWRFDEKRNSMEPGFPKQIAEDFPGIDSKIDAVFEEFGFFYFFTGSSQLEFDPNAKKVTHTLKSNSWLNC

Structure (SMILES)	IC50 [1] [nM]	other results
N#Cc1ccc(N2CCN(c3ccc(S(=O)(=O)C(CCN4C(=O)c5ccccc5C4=O)C(=O)O)cc3)CC2)cc1 (centres undefined)	6.8	–
COc1ccc(-c2ccc(S(=O)(=O)C(CCN3C(=O)c4ccccc4C3=O)C(=O)O)cc2)cc1 (centres undefined)	0.84	–
O=C(O)C(CCN1C(=O)c2ccccc2C1=O)S(=O)(=O)c1ccc(Oc2ccc(OC(F)(F)F)cc2)cc1 (centres undefined)	19	–
O=C(O)C(CCN1C(=O)c2ccccc2C1=O)S(=O)(=O)c1ccc(N2CC=C(c3ccc(Cl)cc3)CC2)cc1 (centres undefined)	12	–
O=C(O)C(CCN1Cc2ccccc2C1=O)S(=O)(=O)c1ccc(-c2ccc(Cl)cc2)cc1 (centres undefined)	8.6	IC50 [2]: 96.5 nM
N#Cc1ccc(-c2ccc(S(=O)(=O)C(CCN3C(=O)c4ccccc4C3=O)C(=O)O)cc2)cc1 (centres undefined)	3	–
O=C(O)C(CN1C(=O)c2ccccc2C1=O)S(=O)(=O)c1ccc(-c2ccc(Cl)cc2)cc1 (centres undefined)	556	IC50 [2]: 1050 nM
CSc1ccc(-c2ccc(S(=O)(=O)C(CCN3C(=O)c4ccccc4C3=O)C(=O)O)cc2)cc1 (centres undefined)	0.74	–
O=C(O)C(CCSc1ccccc1)S(=O)(=O)c1ccc(-c2ccc(Cl)cc2)cc1 (centres undefined)	295	IC50 [2]: > 10000 nM
O=C(O)C(CCN1C(=O)c2ccccc2C1=O)S(=O)(=O)c1ccc(-c2nc3ccc(F)cc3[nH]2)cc1 (centres undefined)	0.7	IC50 [3]: > 1000 nM; IC50 [4]: 0.8 nM; IC50 [5]: 34 nM
Cc1ccc(C#Cc2ccc(S(=O)(=O)C(CCN3C(=O)c4ccccc4C3=O)C(=O)O)cc2)cc1 (centres undefined)	0.7	IC50 [3]: > 1000 nM; IC50 [4]: 1.4 nM; IC50 [5]: 28 nM
O=C(O)C(CCN1C(=O)c2ccccc2C1=O)S(=O)(=O)c1ccc(-c2ccc(Cl)cc2)cc1 (centres undefined)	1.8	C0 [6]: 41.4 µM; T1/2 [7]: 84 min; half-life [8]: 230 min; Vss [9]: 0.4 L/kg; AUC [10]: 18200 ng·h/mL
COc1ccc(C(=O)Cc2ccc(SC(CCN3C(=O)c4ccccc4C3=O)C(=O)O)cc2)cc1 (centres undefined)	54	–
CCCC(C(=O)O)S(=O)(=O)c1ccc(-c2ccc(Cl)cc2)cc1 (centres undefined)	792	IC50 [2]: 10000 nM
O=C(O)C(CCN1C(=O)c2ccccc2C1=O)S(=O)(=O)c1ccc(-c2ccc(F)cc2)cc1 (centres undefined)	6.5	–
O=C(O)C(CCCN1C(=O)c2ccccc2C1=O)S(=O)(=O)c1ccc(-c2ccc(Cl)cc2)cc1 (centres undefined)	145	IC50 [2]: 2120 nM
CC(CCN1C(=O)c2ccccc2C1=O)(C(=O)O)S(=O)(=O)c1ccc(-c2ccc(Cl)cc2)cc1 (centres undefined)	52	–
O=C(NO)C(CCN1C(=O)c2ccccc2C1=O)S(=O)(=O)c1ccc(-c2ccc(Cl)cc2)cc1 (centres undefined)	0.62	C0 [6]: 13.9 µM; clearance [11]: 2.9 mL/min/kg; half-life [12]: 58.8 min; half-life [8]: 12 min; Vd [13]: 0.1 L/kg; AUC [10]: 2940 ng·h/mL; IC50 [2]: 1.4 nM
CC(C)c1ccc(-c2ccc(S(=O)(=O)C(CCN3C(=O)c4ccccc4C3=O)C(=O)O)cc2)cc1 (centres undefined)	0.98	–
CC(CCN1Cc2ccccc2C1)(C(=O)O)S(=O)(=O)c1ccc(-c2ccc(Cl)cc2)cc1 (centres undefined)	3060	IC50 [2]: > 10000 nM
Cc1ccc(-c2ccc(S(=O)(=O)C(CCN3C(=O)c4ccccc4C3=O)C(=O)O)cc2)cc1 (centres undefined)	1.2	–

Further lines, with some results ahead:

IC50 [1] [nM]	Structure (SMILES)	other results
1.5	Cc1ccc(C#Cc2ccc([S+]([O-])C(CCN3C(=O)c4ccccc4C3=O)C(=O)O)cc2)cc1 (centres undefined)	–
4	COc1cccc(C#Cc2ccc(SC(CCN3C(=O)c4ccccc4C3=O)C(=O)O)cc2)c1 (centres undefined)	–
1.7	CC(C)c1ccc(C#Cc2ccc(SC(CCN3C(=O)c4ccccc4C3=O)C(=O)O)cc2)cc1 (centres undefined)	–
2.3	CCCCc1ccc(C#Cc2ccc(SC(CCN3C(=O)c4ccccc4C3=O)C(=O)O)cc2)cc1 (centres undefined)	–
33	Cc1ccc(C#Cc2ccc(SC(CCN3C(=O)c4ccccc4C3=O)C(=O)O)cc2)cc1 (centres undefined)	–
1.9	O=C(O)C(CCN1C(=O)c2ccccc2C1=O)Sc1ccc(C#Cc2ccc(Cl)cc2)cc1 (centres undefined)	–
1.1	CCCc1ccc(C#Cc2ccc(SC(CCN3C(=O)c4ccccc4C3=O)C(=O)O)cc2)cc1 (centres undefined)	–
1.3	O=C(O)C(CCN1C(=O)c2ccccc2C1=O)Sc1ccc(C#Cc2ccc(OC(F)(F)F)cc2)cc1 (centres undefined)	–
1.3	CCc1ccc(C#Cc2ccc(SC(CCN3C(=O)c4ccccc4C3=O)C(=O)O)cc2)cc1 (centres undefined)	–
